{"source": "patent US20060270618A1", "about": "“Novel pharmaceutical composition of interferon gamma or pirfenidone with molecular diagnostics for the improved treatment of interstitial lung diseases” (priority 2001, published 2006)", "key": {"CTGF": {"tested_on": "CTGF", "conditions": "after six months of therapy; cited from earlier work"}, "[1]": {"tested_on": "patients suffering from severe interstitial lung disease (ILD)", "assay": "Therapy of ILD/IPF patients: gene expression analysis followed by interferon gamma", "type": "in vivo, human", "excerpt": "Biopsies were taken from patients suffering from severe interstitial lung disease (ILD), after […] was given, using the surgical method of bronchoscopy. Obtained tissue probes were stored and processed for isolation of total RNA in RNAlater™ (patent pending), an aqueous, non-toxic tissue storage reagent that stabilizes and protects cellular RNA in intact, unfrozen tissue samples.\nAnalysis of Infectious agents in biopsies. As patients with ILD repeatedly suffer from inflammations, biopsied material was tested for the presence of infectious agents. Most dominant was the observation of underlying Herpes virus infections (treated with Ganciclovir) and various bacterial infections (treated with various antibiotics), or few fungal infections.\nTherapy. Therapy with interferon gamma was only started after successful pretreatment of the underlying infections and the assessment of the gene expression of the endogenous disease signiture genes."}, "[2]": {"tested_on": "bleomycin-induced lung collagen fibrosis", "conditions": "bleomycin mice; cited from earlier work"}, "TGF-β1": {"tested_on": "TGF-β1", "conditions": "after six months of therapy; cited from earlier work"}, "[3]": {"tested_on": "individuals suffering from IPF", "conditions": "cited from earlier work"}, "[4]": {"tested_on": "patient with histologically proven UIP", "assay": "Single patient with histologically proven UIP, CMV pretreatment then interferon gamma (FIG. 1)", "type": "in vivo, human", "conditions": "failure of immunosuppressive treatment, gene transcription analysis", "excerpt": "FIG. 1: FIG. 1 depicts the total lung capacity (TLC), the partial pressure of arterial oxygen (PaO2), and the forced vital capacity (FVC) of a patient with histologically proven UIP (open lung biopsy) and failure of immunosuppressive treatment treated with interferon gamma. FIG. 1b) depicts the total lung capacity (TLC), the partial pressure of arterial oxygen (PaO2), and the forced vital capacity (FVC) of the same patient with histologically proven UIP (open lung biopsy) and failure of immunosuppressive treatment between time #l and time #2."}, "[5]": {"conditions": "after pretreatment of infections and gene expression analysis"}}, "data": [{"substance": "interferon gamma [naturally occurring glycoprotein cytokine, molecular weight about 17.000, also produced by recombinant techniques]", "values": [{"measurement": "transcription of CTGF", "setting": "CTGF", "value": "significantly diminished"}, {"measurement": "physical exertion capacity", "setting": "[1]; [5]", "value": "substantial increase"}, {"measurement": "total lung capacity", "setting": "[1]; [5]", "value": "statistically highly significant increase"}, {"measurement": "partial pressure of arterial oxygen", "setting": "[1]; at rest", "value": "statistically significant increased"}, {"measurement": "effectiveness in the combination therapy", "setting": "[1]; dose of 1.0-5.0 μg/kg body weight, 1-5 times per week, parenteral", "value": "effective"}, {"measurement": "disease symptoms", "setting": "[1]; human, in vivo", "value": "strong decrease"}, {"measurement": "survival benefit", "setting": "[1]; patients with IPF", "value": "significant survival benefit"}, {"measurement": "amount of fibrosis", "setting": "[2]", "value": "reduction in the amount of fibrosis"}, {"measurement": "expression of TGF-β1", "setting": "[2]", "value": "reduced expression"}, {"measurement": "transcription of TGF-β1", "setting": "TGF-β1", "value": "significantly diminished"}, {"measurement": "lung function", "setting": "[3]", "value": "improvement of lung function"}, {"measurement": "clinical outcome of the patient", "setting": "[4]", "value": "stabilization of the patient"}]}]}
